Common to all, as to assay type: cell-based, human
For series [1], the system named is HT-29 cells. In words: Polyamine levels in HT-29 cells. Particulars: 6 hrs, mitogen 100 ng/ml. As to the method:
(§1) HT-29 and RKO cells were obtained from the Cell Culture Core of the USC Liver Disease Research Center and grown according to instructions provided by the American Type Culture Collection (ATCC, Rockville, Md.). Prior to treatment with growth factors, SAMe or MTA, medium was changed to 0.1% FBS overnight.
(§2) Cellular SAMe and MTA levels were measured (51) and polyamine levels were determined (52).

For series [2], the system named is MAT2A. Put plainly: MAT2A mRNA levels by real-time PCR in RKO cells. Particulars: for MAT2A mRNA levels after growth factor / MAT2A expression: RKO cells; for MAT2A mRNA levels after growth factor: growth factor 100 ng/ml. The protocol: as §1
(§3) RNA interference (RNAi) experiments were performed using Lipofectamine RNAiMax (Invitrogen) according to the manufacturer's instructions. Small interfering RNA (siRNA) oligonucleotides for MAT2A and scrambled siRNA were synthesized by the USC Norris Comprehensive Cancer Center Microchemical Core Laboratory, and annealed to form duplexes. Stealth RNAi for MAT2A and Stealth RNAi negative control duplexes were synthesized by Invitrogen (Carlsbad, Calif.). The following siRNA sequences were used: si-MAT2A #1, 5′-[…]-3′ (sense) and 5′-[…]-3′ (antisense); si-control with scrambled sequence (negative control siRNA having no perfect matches to known human genes), 5′-[…]dTdT-3′ (sense) and 5% […]dTdT-3′ (antisense); stealth RNAi-MAT2A #5, 5′-[…]-3′ (sense) and 5′-[…]-3′ (antisense). Transfection was allowed to proceed 72 hours before collection for different assays.
(§4) Total RNA was isolated by the EZgeno total RNA isolation kit (Genemega, San Giego, Calif.), and subjected to reverse transcription (RT) by using M-MLV Reverse transcriptase (Invitrogen). 2 μl of RT product was subjected to quantitative real-time PCR analysis. The primers and TaqMan probes for MAT2A, MAT2β and Universal PCR Master Mix were purchased from ABI (Foster City, Calif.). Hypoxanthine phosphoribosyl-transferase 1 (HPRT1) and ubiquitin C (UBC) were used as housekeeping genes (48). The thermal profile consisted of 1 cycle at 95° C. for 15 minutes followed by 40 cycles at 95° C. for 15 seconds and at 60° C. for 1 minute. The expression of MAT2A and MAT2β was checked by normalizing the Ct of MAT2A and MAT2β to that of the control housekeeping gene (HPRT1 or UBC) (49). The delta Ct obtained was used to find the relative expression of MAT genes according to the formula: Relative expression=2·^ΔCt, where ΔCt=ΔCt of MAT genes in colon cancer or treated cells—ΔCt of MAT genes in normal colon or control cells.

The subject of series [3] is ornithine decarboxylase (ODC). In words: ODC expression by real-time PCR in HT-29 cells. To be noted: 6 hrs, mitogen 100 ng/ml. A general note: Real-time PCR tracks product formation cycle by cycle.
The subject of series [4] is HT-29 cells. In words: Cellular SAMe and MTA levels in HT-29 cells. To be noted: mitogen 100 ng/ml. As to the method:
as §1, §2

Series [5] has as its system spermine synthase (SPM syn). Put plainly: SPM syn expression by real-time PCR in HT-29 cells. To be noted: 6 hrs, mitogen 100 ng/ml.
In series [6] the test system is MAT2A. Put plainly: MAT2A mRNA levels by real-time PCR in HT-29 cells. Particulars: for MAT2A mRNA levels after growth factor: growth factor 100 ng/ml. The protocol: as §1
as §3, with “Transfection was allowed to proceed 72 hours before collection for different assays.” left out
as §4

For the next series, the system named is SPD syn. In words: SPD syn expression by real-time PCR in HT-29 cells. Particulars: 6 hrs, mitogen 100 ng/ml.
The next series has as its system RKO cells. In words: Apoptosis in RKO cells (HOECHST staining, Annexin V). The protocol: Apoptosis was assessed by HOECHST staining (34). Briefly, RKO cells were grown on coverslips and treated with RNAi#1 for 24 hrs and cells were fixed with paraformaldehyde and stained with 8 μg/ml HOECHST 33258 dye for 30 min. Cells with bright, fragmented, condensed nuclei were identified as apoptotic cells using the Nikon Eclipse TE300 fluorescent microscope. At least 5 random fields (at ×300) were counted.
In these experiments the total treatment duration was limited to 16 hrs to avoid the apoptotic effect. […] Apoptosis was measured by Hoechst staining or Annexin V and propidium iodide staining on flow cytometry.

The test system of series [7] is HT-29 cells. Put plainly: Cell growth by MTT assay in HT-29 cells. The protocol:
Cell growth was measured by the cell growth determination kit MTT from Sigma (St. Louis, Mo.). The MTT assay measures the cell proliferation rate and reduction in cell viability. HT-29 or RKO cells (1×10^4/well) were plated in 96-well plates and treated with growth factors (all 100 ng/ml), SAMe (0.5 to 5 mM), MTA (0.5 to 1 mM), alone or in combination for 16 hrs in serum-free medium. To determine the effect of MAT2A RNAi on mitogen-induced changes in MTT, cells were first treated with RNAi for 48 hrs followed by mitogen treatment for another 24 hrs.
Background: Tetrazolium assays rely on reduction of a dye to a coloured formazan, in cell work by metabolically active cells.

Data on four substances can be found in patent publication US20100166727A1, “S-Adenosylmethionine And Methylthioadensosine In Chemoprevention And Treatment Of Colon Polyps And Cancer” (UNIVERSITY OF SOUTHERN CALIFORNIA, priority 2007, published 2010).

In the series with HT-29 cells [1], EGF: Epidermal growth factor, mitogen displayed a Putrescine of 0.32 ± 0.01 nmol/mg protein, a Spermidine of 2.19 ± 0.23 nmol/mg protein and a Spermine of 12.55 ± 2.04 nmol/mg protein. The “MAT2A mRNA levels after growth factor” value with MAT2A [2] is given as “doubled”. Also, the ODC expression in series [3] is listed as 1.5 ± 0.07 fold of control. Further, in the series with HT-29 cells [4] (6 hrs), the MTA level is 0.054 ± 0.001 nmol/mg protein and the SAMe level amounted to 0.54 ± 0.04 nmol/mg protein. In the series on HT-29 cells [4] (16 hrs), this substance displayed an MTA level of 0.061 ± 0.010 nmol/mg protein and an SAMe level of 0.63 ± 0.06 nmol/mg protein. For the same substance, the SPM syn expression in [5] is listed as 1.1 ± 0.02 fold of control. Also, in the series on MAT2A [6] (HT-29 cells), the “MAT2A mRNA levels after growth factor” value is “doubled”. For the same substance, the SPD syn expression in the series with SPD syn is listed as 1.7 ± 0.08 fold of control.

In the series on HT-29 cells [1], “IGF-1: insulin-like growth factor-1, mitogen” registered a Putrescine of 0.22 ± 0.02 nmol/mg protein, a Spermidine of 2.82 ± 0.09 nmol/mg protein and a Spermine of 12.55 ± 2.50 nmol/mg protein. For the same substance, the “MAT2A mRNA levels after growth factor” value in the series with MAT2A [2] is “doubled”. Moreover, in [3], the ODC expression is on record as 1.5 ± 0.08 fold of control. This substance also yielded an MTA level with HT-29 cells [4] (6 hrs) of 0.054 ± 0.003 nmol/mg protein. In the series on HT-29 cells [4] (16 hrs), this substance registered an MTA level of 0.087 ± 0.025 nmol/mg protein and an SAMe level of 1.03 ± 0.03 nmol/mg protein. Further, the SPM syn expression in series [5] was 1.1 ± 0.03 fold of control. Also, the “MAT2A mRNA levels after growth factor” value with MAT2A [6] (HT-29 cells) is listed as “doubled”. Also, the SPD syn expression with SPD syn is reported as 2.2 ± 0.20 fold of control.

On to “RNAi#1: siRNA against MAT2A, sense 5′-ACACAUUGGAUAUGAUGAUTT-3′ (antisense AUCAUCAUAUCCAAUGUGUTT; chemistry not given here) [reference compound]”, for which the results for the apoptosis result in the series with RKO cells (24 hrs of RNAi treatment) and in the series with RKO cells (48 hrs of RNAi treatment) were “significant increase in apoptosis” and “more pronounced”, respectively. Besides, the “lowering of MAT2A expression” value in the series on MAT2A [2] is on record as 90%. Besides, the results for the MAT2A expression in the series on MAT2A [2] (24 hrs) and in the series on MAT2A [2] (48 hrs) were 25 % of scrambled control and 9 % of scrambled control, respectively.

On to “RNAi#5: stealth RNAi against MAT2A, sense 5′-CCACCUACAGCCAAGUGGCAGAUUU-3′ (antisense AAAUCUGCCACUUGGCUGUAGGUGG; chemistry not given here) [reference compound]”, for which the apoptosis entry with RKO cells (after 24 hrs) is recorded as “No apoptosis was detected”. Besides, in the series on HT-29 cells [7] (HT-29 or RKO cells, RNAi 48 hrs then another 24 hrs), the “lowering of MTT value” is listed as “about 30%”. Also, the “mitogenic effect of leptin, IGF-1 and EGF” value in the series with HT-29 cells [7] (RNAi 48 hrs, then growth factors 24 hrs) was “blocked the ability of leptin, IGF-1 and EGF to fully exert their mitogenic effect”. Further, the “MAT2A mRNA level” value with MAT2A [6] (HT-29 cells, RNAi 48 hrs) is 50 % of control. Besides, the “lowering of MAT2A expression” value in the series with MAT2A [6] (at 72 hrs) is 50%.
